Experimental findings from paper PMC6522510 (Nature Communications, 2019) are described below.

Assay [1] concerns CHRF288-11. The assay can be described thus: Secondary dose-response HTS, Cell Titer Glo. The class given is cell-based, human. The settings on record: secondary high-throughput screen, CHRF288-11; for EC50: Homo sapiens, HTS, read-out: average effective concentration, CHRF288-11. (ATP-based viability assays read luminescence as a measure of living cells.)
For assay [2], the system named is MV4-11. The experiment in a line: Secondary dose-response HTS, Cell Titer Glo. The class given is cell-based, human. The note with it: secondary high-throughput screen, MV4-11; for EC50: read-out: average effective concentration, MV4-11.
Assay [3] deals with M07e. The assay can be described thus: Secondary dose-response HTS, Cell Titer Glo. The class given is cell-based, human. The note with it: secondary high-throughput screen; for EC50: read-out: average effective concentration, M07e.
Assay [4] has as its system MOLM-13. The experiment in a line: Secondary dose-response HTS, Cell Titer Glo. The class given is cell-based, human. The note with it: secondary high-throughput screen, MOLM-13; for EC50: read-out: average effective concentration, MOLM-13.
In assay [5] the test system is ML2. The experiment in a line: Secondary dose-response HTS, Cell Titer Glo. The class given is cell-based, human. The settings on record: secondary high-throughput screen, ML-2; for EC50: Homo sapiens, read-out: average effective concentration, ML-2.
The subject of assay [6] is CMK. The experiment in a line: Secondary dose-response HTS, Cell Titer Glo. The settings on record: CMK; for EC50: Homo sapiens, read-out: average effective concentration, CMK. The class given is cell-based, human.
Assay [7] concerns CMS. The assay can be described thus: cells. More on the design: species or system AML cell lines (8); Secondary HTS, 10-point dose-response in triplicate, Cell Titer Glo viability, four-parameter fit EC50. The note with it: 72 h, read-out: CMS.
The subject of assay [8] is U937. The experiment in a line: Secondary dose-response HTS, Cell Titer Glo. The settings on record: secondary high-throughput screen, U937; for EC50: Homo sapiens, U-937, read-out: average effective concentration, U937. The class given is cell-based, human.
Assay [9] has as its system MV4-11. The experiment in a line: cells. Also noted: species or system AML cell lines (8); Secondary HTS, 10-point dose-response in triplicate, Cell Titer Glo viability, four-parameter fit EC50. The note with it: Homo sapiens, MV4-11, 72 h, read-out: MV4-11.
Assay [10] deals with MOLM-13. The experiment in a line: cells. More on the design: species or system AML cell lines (8); Secondary HTS, 10-point dose-response in triplicate, Cell Titer Glo viability, four-parameter fit EC50. The note with it: Homo sapiens, MOLM-13, 72 h, read-out: MOLM-13.
Assay [11] concerns CMK. The assay can be described thus: cells. More on the design: species or system AML cell lines (8); Secondary HTS, 10-point dose-response in triplicate, Cell Titer Glo viability, four-parameter fit EC50. The note with it: Homo sapiens, CMK, 72 h, read-out: CMK.
Assay [12] relates to U937. The assay can be described thus: cells. More on the design: species or system AML cell lines (8); Secondary HTS, 10-point dose-response in triplicate, Cell Titer Glo viability, four-parameter fit EC50. The note with it: Homo sapiens, U-937, 72 h, read-out: U937.
Assay [13] deals with CMS. The assay can be described thus: Secondary dose-response HTS, Cell Titer Glo. The class given is cell-based, human. The note with it: secondary high-throughput screen; CMS.
The test system of assay [14] is CHRF288-11. The experiment in a line: cells. The settings on record: 72 h, read-out: CHRF288-11. Also noted: species or system AML cell lines (8); Secondary HTS, 10-point dose-response in triplicate, Cell Titer Glo viability, four-parameter fit EC50.
Setting [15] is: secondary high-throughput screen.

Like-named read-outs stand apart in the source and are kept apart here.

Regarding `O=C(/C=C/c1cccnc1)NCCCCC1CCN(C(=O)c2ccccc2)CC1` [DAPORINAD], the EC50 in [1] is 0.012 µM; in assay [2] (Homo sapiens), 0.001 µM; in assay [3] (Homo sapiens, M-07e, M07e), 0.001 µM; in [4] (Homo sapiens) it was 0.001 µM; in assay [5], 0.001 µM; in assay [6] (setting [15]), 0.001 µM. The EC50 in [7] was more than 10 µM; in assay [8], 0.001 µM.

On to `Cn1ncnc1[C@H]1c2n[nH]c(=O)c3cc(F)cc(c23)N[C@@H]1c1ccc(F)cc1` [BMN 673], for which the EC50 in assay [9] is more than 10 µM; in assay [1] it was 0.074 µM; in assay [3] (Homo sapiens, M-07e, M07e), 9.2 µM; in assay [5], 0.079 µM; in assay [6] (setting [15]), 0.21 µM; in [7], more than 10 µM. The EC50 in assay [8] was 3.6 µM; in assay [10] it was more than 10 µM.

On to `C=C(C)[C@@H](CC=C(C)C)C[C@@]12C[C@@H](CC=C(C)C)C(C)(C)[C@@](CC=C(C)C)(C(=O)C(C(=O)c3ccc(O)c(O)c3)=C1O)C2=O` [GARCINOL], for which the EC50 in assay [9] was more than 10 µM; in assay [1], 5.8 µM; in assay [3] (Homo sapiens, M-07e, […]), more than 10 µM; in [4] (Homo sapiens) it was 5.1 µM; in assay [5], 5.4 µM; in assay [11], more than 10 µM. In addition, the EC50 in assay [7] and in assay [12] was more than 10 µM in each case.

In the case of `COc1ccc(Cn2ccc3ccc(C(=O)NO)cc32)cc1` [PCI 34051], the “average effective concentration, CHRF288-11” value in assay [1] is “Inactive”. Besides, the “average effective concentration, MV4-11” value in assay [2] is “Inactive”. The “average effective concentration, M07e” value in [3] ([…]) was “Inactive”. The “average effective concentration, MOLM-13” value in [4] is listed as “Inactive”. Besides, in assay [5], the “average effective concentration, ML-2” value is “Inactive”. Also, the “average effective concentration, CMK” value in assay [6] (setting [15]) was “Inactive”. In addition, in assay [8], the “average effective concentration, U937” value was “Inactive”.

With `COC(=O)[C@H](CC(C)C)NC(=O)c1ccc(NC[C@@H](N)CS)cc1-c1cccc2ccccc12` [GGTI 298], the “average effective concentration, CHRF288-11” value in assay [1] is recorded as “Inactive”. The “average effective concentration, M07e” value in assay [3] (M07e) is given as “Inactive”. Moreover, the “average effective concentration, ML-2” value in assay [5] is reported as “Inactive”. The “average effective concentration, CMK” value in assay [6] (setting [15]) was “Inactive”. Also, in assay [13], the “average effective concentration, CMS” value is recorded as “Inactive”.

As for `N#Cc1ccc(COC[C@H]2O[C@@H](n3c(NCc4ccc(Cl)c(Cl)c4)nc4c(N)ncnc43)[C@H](O)[C@@H]2O)cc1` [VER-155008], the “average effective concentration, CHRF288-11” value in assay [1] was “Inactive”. Moreover, the “average effective concentration, MV4-11” value in assay [2] is “Inactive”. The “average effective concentration, M07e” value in [3] (M07e) was “Inactive”. In [4], the “average effective concentration, MOLM-13” value is on record as “Inactive”. In assay [5], the “average effective concentration, ML-2” value is “Inactive”. Besides, the “average effective concentration, CMK” value in assay [6] (setting [15]) is given as “Inactive”. The “average effective concentration, U937” value in assay [8] was “Inactive”.

As for `Cc1ccc(F)c(NC(=O)Nc2ccc(-c3cccc4[nH]nc(N)c34)cc2)c1` [LINIFANIB], the EC50 is 0.003 µM in assay [2] (Homo sapiens); more than 10 µM in assay [3] (Homo sapiens, M-07e, M07e); 0.007 µM in assay [4] (Homo sapiens); more than 10 µM in assay [5]; more than 10 µM in assay [14]; 5.8 µM in assay [6]. The EC50 in assay [7] was more than 10 µM; in [8], 6 µM.

On to `Oc1cccc(-c2nc(N3CCOCC3)c3oc4ncccc4c3n2)c1` [PIK 103], for which, in assay [1], the “average effective concentration, CHRF288-11” value is on record as “Inactive”. Besides, the “average effective concentration, M07e” value in assay [3] (M07e) is “Inactive”. Further, the “average effective concentration, ML-2” value in assay [5] is “Inactive”. For the same compound, the “average effective concentration, CMS” value in assay [13] is reported as “Inactive”.

Regarding `CCc1c2c(nc3ccc(OC(=O)N4CCC(N5CCCCC5)CC4)cc13)-c1cc3c(c(=O)n1C2)COC(=O)[C@]3(O)CC` [IRINOTECAN], the EC50 is 4.5 µM in assay [1]; 3.1 µM in assay [2] (Homo sapiens); more than 10 µM in [3] (Homo sapiens, M-07e, M07e); 2.5 µM in assay [4] (Homo sapiens); 4 µM in assay [5]; more than 10 µM in assay [11]. In addition, the values for the EC50 in assay [7] and in assay [8] were more than 10 µM and 10 µM, respectively.

For the compound `N#CN=C(NCCCCCCOc1ccc(Cl)cc1)Nc1ccncc1` [GMX-1778], the EC50 turned out to be 0.00048 µM in [1]; 0.0011 µM in [2] (Homo sapiens); 0.00052 µM in assay [3] (Homo sapiens, M-07e, […]); 0.0036 µM in [4] (Homo sapiens); 0.00035 µM in [5]; 0.0056 µM in assay [6] (setting [15]). The EC50 in assay [7] was more than 10 µM; in assay [8], 0.005 µM.

Turning to `COc1cccc2c1C(=O)c1c(O)c3c(c(O)c1C2=O)C[C@@](O)(C(C)=O)C[C@@H]3O[C@H]1C[C@H](N)[C@H](O)[C@H](C)O1` [DAUNORUBICIN], the EC50 in assay [1] was 0.001 µM; in assay [2] (Homo sapiens), 0.023 µM; in [3] (Homo sapiens, M-07e, […]), 0.009 µM; in [4] (Homo sapiens), 0.043 µM; in assay [5], 0.001 µM; in assay [6] (setting [15]) it was 0.035 µM. For the same compound, the EC50 in assay [8] stood at 0.0043 µM.

For `COC1=C2C[C@@H](C)C[C@H](OC)[C@H](O)[C@@H](C)/C=C(\C)[C@H](OC(N)=O)[C@@H](OC)/C=C\C=C(/C)C(=O)NC(=CC1=O)C2=O` [GELDANOMYCIN], the “average effective concentration, CHRF288-11” value in assay [1] is given as “Inactive”. Besides, in assay [3] (M07e), the “average effective concentration, M07e” value is “Inactive”. Moreover, in assay [6] (setting [15]), the “average effective concentration, CMK” value is “Inactive”. Further, in [13], the “average effective concentration, CMS” value was “Inactive”.

As to `O=c1[nH]c2sccc2c2ccccc12` [TIQ-A], in assay [1], the “average effective concentration, CHRF288-11” value was “Inactive”. In addition, the EC50 in assay [2] is 3.5 µM; in assay [3] (M07e), 7 µM; in assay [4], 4.2 µM. In assay [5], the “average effective concentration, ML-2” value was “Inactive”. The “average effective concentration, CMK” value in assay [6] (setting [15]) is “Inactive”. Further, in assay [8], the “average effective concentration, U937” value is reported as “Inactive”.

In the case of `O=C(CCCCCCC(=O)Nc1ccc([C@H]2O[C@@H](CSc3nc(-c4ccccc4)c(-c4ccccc4)o3)C[C@@H](c3ccc(CO)cc3)O2)cc1)NO` [TUBACIN], the EC50 in assay [9] was more than 10 µM; in assay [1] it was more than 10 µM; in assay [3] (Homo sapiens, M-07e, […]), 2.5 µM; in assay [4] (Homo sapiens) it was more than 10 µM; in [5], more than 10 µM; in assay [11], more than 10 µM. Besides, the EC50 in assay [7] and in assay [12] was more than 10 µM each time.

In the case of `O=C(CCCCCCC(=O)Nc1cccnc1)NO` [PYROXAMIDE], the EC50 in [2] (Homo sapiens) is 1.6 µM; in [3] (Homo sapiens, M-07e, M07e), 8.2 µM; in assay [4] (Homo sapiens) it was 6 µM; in assay [5] it was more than 10 µM; in assay [14] it was more than 10 µM; in [11] it was more than 10 µM. In addition, the EC50 was more than 10 µM in assay [7] and 5.8 µM in assay [8].

Turning to `CCc1c(O)cc(O)c(C(=O)c2ccc(OCCN3CCOCC3)c(OC)c2)c1CC(=O)N(CCOC)CCOC.Cl` [KW-2478], the “average effective concentration, M07e” value in assay [3] (M07e) is recorded as “Inactive”. The “average effective concentration, CMS” value in [13] is given as “Inactive”. Besides, the “average effective concentration, U937” value in assay [8] is given as “Inactive”.

In the case of `COc1c(C)c2c(c(O)c1C/C=C(\C)CCC(=O)OCCN1CCOCC1)C(=O)OC2` [MYCOPHENOLATE MOFETIL], the EC50 is 2.9 µM in assay [1]; 1.9 µM in assay [2] (Homo sapiens); more than 10 µM in assay [3] (Homo sapiens, M-07e, M07e); 1.5 µM in assay [4] (Homo sapiens); 1.3 µM in [5]; 7.5 µM in assay [6]. For the same compound, the EC50 in assay [7] is more than 10 µM; in assay [8], 3 µM.

As to `COc1cc(Nc2c(C#N)cnc3cc(OCCCN4CCN(C)CC4)c(OC)cc23)c(Cl)cc1Cl` [BOSUTINIB], the EC50 in assay [1] came to 3.8 µM; in assay [2] (Homo sapiens), 3.8 µM; in [3] (Homo sapiens, M-07e, M07e) it was 4.8 µM; in assay [4] (Homo sapiens), 2.7 µM; in assay [5], 10 µM; in assay [6], 1.1 µM. Also, the results for the EC50 in [7] and in [8] were more than 10 µM and 3.8 µM, respectively.
